The values that follow come from article PMC10517462, “Small molecule targeting of the p38/Mk2 stress signaling pathways to improve cancer treatment” (BMC Cancer, 2023).

One series concerns NCI-H69 cells. Put plainly: FACS-based (DRAQ7) viability assay. Type of series: cell-based, human. Here is the method:
[…] Etoposide, SB203580 and MK2.III were all dissolved in 0.2% of DMSO before use. Cells treated only with the carrier molecule DMSO (0.2%) served as a control.
Viability analysis was performed by staining with the […], stoichiometric DNA stain DRAQ7 (640 or 633 nm excitation and 670 nm emission; Biostatus Limited). After 48-h treatment with DNA damaging agents and/or inhibitors, cells were washed once with RPMI 1640 and resuspended in 1 ml culture media at a concentration of less than 5 × 10^5/ ml. Cells were stained with 20 µM of DRAQ7 and incubated at 37 °C for 10 min before FACS Calibur cytometer analysis. Fluorescent signals were amplified using linear mode. Cell cycle analysis was performed either by staining DRAQ7 or Propidium Iodide (PI). Cells were stained with 20 µM of DRAQ7 and incubated at 37 °C for 10 min before analysis on a FACSCalibur cytometer. Propidium Iodide (PI, excited with 488 nm laser, collected with 585/52 bandpass filter) was used in the large-scale experiments. Samples were then fixed with 70% EtOH following the viability assay and stored at 4 °C overnight before the experiment. After fixation with 70% EtOH (added drop-wise) for 24 h, samples were centrifuged into the pellet and then washed twice with ice-cold PBS. The supernatant was discarded and pellets were resuspended in 100 µl of RNase A (100 µg/ml) and 400 µl of PI ([…] in PBS). Analysis of flow cytometry data was performed using FlowJo software. Untreated, unstained cells were used as a negative control to determine the location of viable cells on the dot plots. Events below a threshold size were interpreted as cellular debris and were removed from the dataset, leaving a whole cell population.

Series [1] has as its system MDA-MB-231 breast cancer cell line. Description: CCK8 cell viability assay, MDA-MB-231. The series is classed as cell-based, human. The settings on record: MK2.III 1 µM or etoposide 150 µM alone, 24 h. How it is done:
(§1) To assess the effect of MK2.III kinase inhibitor and the etoposide (VP-16) on the viability of different cancer cell lines, cells were seeded in 96-well plates in a concentration of 5000 cells per well. After 12 h, etoposide and 1 μM MK2.III diluted in culture media were added into the wells for 24 h. NCI-H69 cells were exposed to a series of etoposide concentrations from 20 μM to 150 μM. MDA-MB-231, SW 620, and SW 480 cell lines were incubated with 150 μM etoposide. After treatment, 10 μL of the CCK-8 reagent (96992, Sigma) was added to each well for 1 h followed by optical density measurement at 450 nm using hybrid plate reader Synergy H1.

Series [2] deals with SW620 colorectal cancer cell line. Put plainly: CCK8 cell viability assay, SW620. The series is classed as cell-based, human. The settings on record: MK2.III 1 µM or etoposide 150 µM alone, 24 h. How it is done: as §1
For a further series, the system named is NCI-H69 xenograft. Put plainly: Tumor (xenograft) suppression with combination chemotherapy in SCID mice. Type of series: in vivo. The settings on record: for Tumor Volume (mm^3) median (25th and 75th quartile): VP-16 12 mg/kg. How it is done: To establish the most suitable xenograft model for the main experiment we used two mouse lines – BALB/c Nude and SCID (both female, 6 weeks, n = 20, Charles River). Both mouse lines were injected with NCI-H69 cancer cells (xenograft). Before injection, cells were grown at 37 °C in RPMI-1640 medium containing 10% FBS and pen/strep. Cells were mixed with Matrigel (1:1) and depending on the group 5 × 10^6 or 10 × 10^6 cells were injected into a mouse subcutaneously along the spine to the level of the left scapula. Mice were divided into 4 groups: (1) 5 × 10^6 NCI-H69 SCID (n = 5); (2) 5 × 10^6 NCI-H69 Nude (n = 5); (3) 10 × 10^6 NCI-H69 SCID (n = 5); and (4) 10 × 10^6 NCI-H69 Nude (n = 5).
The main experiment (injection of the drugs) took place after the tumor growth was established. The tumor growth in mice following the injection of cells was monitored twice a week and upon reaching the volume of ~ 100 mm^3, animals were randomized into 5 groups (12 female SCID mice in each group). The drug treatment was performed as follows: the first group was a control and received a placebo in the form of PBS (tumor volume 95 ± 38 mm^3); the second group received 12 mg/kg of Etoposide (tumor volume 101 ± 51 mm^3); the third group was injected with 4 mg/kg of MK2.III (tumor volume 105 ± 44 mm^3); fourth and fifth groups were injected with 12 mg/kg of Etoposide and 4 mg/kg or 2 mg/kg of MK2.III (tumor volumes 112 ± 57 and 107 ± 49 mm^3 respectively). Drugs were injected intraperitoneally daily. Etoposide was injected 3 days after the randomization into groups and MK2.III was administered for 28 days. Tumor growth/suppression was measured using calipers every 3–4 days for the duration of the 28-day treatment and the tumor volume was calculated as follows:[…],
Antitumor properties of drugs in the test group were determined based on the slowing of the tumor growth or tumor volume compared with the control group receiving PBS. Animal welfare was monitored throughout the study period to ensure that animals in distress were euthanized by carbon dioxide asphyxiation. All the animals were also euthanized by carbon dioxide asphyxiation following the completion of the study.
Descriptive statistics were used to summarize the tumor size and data reported as medians and 25th and 75th quartiles. Wilcoxon sum rank test was used to investigate the effects of the treatments on tumor growth. […] Statistical analyses were performed on the SigmaPlot 11.0 software.

Details of series [3]: method as in PMID 26502061. The settings on record: cited from earlier work.

Structures are written as SMILES.

Consider `O=C1NCCc2[nH]c(-c3ccnc(-c4cnc5ccccc5c4)c3)cc21` [MK2.III], for which the “Viable cells (%)” value came to 87.4% in the series on NCI-H69 cells (Table 1 dose response, agent alone 0.321 µM (lowest dose), 48 h); 90.2% in the series with NCI-H69 cells (Table 1 dose response, agent alone 0.626 µM, 48 h); 87.3% in the series on NCI-H69 cells (Table 1 dose response, agent alone 1.25 µM, 48 h); 88.4% in the series on NCI-H69 cells (Table 1 dose response, agent alone 2.5 µM, 48 h); 83.5% in the series on NCI-H69 cells (Table 1 dose response, agent alone 5.0 µM (highest dose), 48 h); 66.1% in the series on NCI-H69 cells (Table 2, VP-16 0 µM (inhibitor alone: MK2.III 1.0 µM or SB203580 2.5 µM), DMSO control 74.6%). Further, the “Effect of single agent on viability” value in series [1] is listed as “does not affect the viability”. Also, the “Decrease of viability by single agent” value in series [2] was 30%. Further, the “Difference in tumor size versus control” value with NCI-H69 xenograft (at any checkpoint, etoposide 12 mg/kg, MK2.III 4 mg/kg, or etoposide + MK2.III 2 mg/kg) is “no significant difference”. Moreover, the “Tumor Volume (mm^3) median (25th and 75th quartile)” value is reported as 516 (401;703) mm^3 with NCI-H69 xenograft (day 11 upon treatment, MK2.III 4 mg/kg IP daily); 843 (712;1197) mm^3 with NCI-H69 xenograft (day 18 upon treatment, MK2.III 4 mg/kg IP daily); 106 (72;132) mm^3 in the series on NCI-H69 xenograft (day -1 upon treatment (baseline), MK2.III 4 mg/kg IP). In series [3], the Solubility entry is “poor solubility”.
